In patent US12215140B2, “Method of stabilizing protein contained in specimen and solution for stabilizing protein contained in specimen” (EIKEN KAGAKU KABUSHIKI KAISHA, priority 2018, dated 2025):
Values joined by “and” are separate entries in the source; they are usually repeats but may differ in a detail not shown here. Identical values can stand only once.

Molecular target: hemoglobin (Homo sapiens, UniProt P68871+P69905)
Experiment: Stability of hemoglobin in samples preserved at 37° C. in preservation solution containing no haptoglobin, Hb measured by latex agglutination method (Examples 8, 9 and Table 10)
Settings: for Hb concentration / Recovery ratio with respect to Hb after 0 days: no phenylboronic acid, sugar 100 mmol/L; for recovery ratio of hemoglobin in the sample: sugar further added to phenylboronic acid 0.5 mmol/L, no haptoglobin, Feces 1, Feces 2, Feces 3
Protocol: Preservation solutions were prepared with the addition of 40 mmol/L HEPES (pH 6.8), 0.1% BSA, 0.1% NaN3, and 0 to 2.5 mmol/L phenylboronic acid. […] Samples obtained by adding hemoglobin-added fecal specimens to the preservation solutions so that the fecal concentration would be 0.5% were preserved at 37° C. for 0, 16, 38, and 62 hours. The fecal specimens were added with hemoglobin having an amount such that the hemoglobin concentration in the samples would be about 300 μg/L. Instead of the fecal specimens to which hemoglobin was added, samples containing no fecal specimens, in which hemoglobin was added to the preservation solutions so that the hemoglobin concentration in the samples would be 300 μg/L, were similarly preserved. The hemoglobin (Hb) concentrations (μg/L) in the preserved samples were measured by the latex agglutination method using the same measurement reagent and measurement device as in Example 1.
The concentration of phenylboronic acid in the preservation solutions of Example 8 was fixed to 0.5 mmol/L, preservation solutions to which sorbitol or sucrose was further added at 10 to 250 mmol/L or trehalose, glucose, fructose, or mannitol was further added at 50 to 100 mmol/L were prepared, and testing was conducted in the same manner as in Example 8. In addition, preservation solutions to which the phenylboronic acid was added but no sugar was added were prepared, preservation solutions to which the phenylboronic acid and sugar were not added were prepared for the comparative examples, and testing was conducted in the same manner.
For comparative examples, preservation solutions to which no arylboronic acid was added were prepared, and testing was conducted in the same manner.

Sequence of hemoglobin (P69905 2-142): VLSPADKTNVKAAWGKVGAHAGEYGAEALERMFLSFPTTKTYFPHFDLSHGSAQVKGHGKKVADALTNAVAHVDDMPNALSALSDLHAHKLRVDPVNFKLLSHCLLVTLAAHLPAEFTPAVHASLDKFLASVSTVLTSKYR
Sequence of hemoglobin (P68871 2-147): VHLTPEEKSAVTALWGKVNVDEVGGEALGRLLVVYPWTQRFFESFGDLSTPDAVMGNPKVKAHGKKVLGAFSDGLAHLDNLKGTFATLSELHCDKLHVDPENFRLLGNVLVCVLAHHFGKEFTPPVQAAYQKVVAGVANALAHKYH

| Hb concentration (Feces 1, 0 h at 37° C.) | Recovery ratio with respect to Hb after 0 days (Feces 1, 0 h at 37° C.) | Hb concentration (Feces 1, 16 h at 37° C.) | Recovery ratio with respect to Hb after 0 days (Feces 1, 16 h at 37° C.) | Hb concentration (Feces 1, 38 h at 37° C.) | Recovery ratio with respect to Hb after 0 days (Feces 1, 38 h at 37° C.) | Hb concentration (Feces 1, 62 h at 37° C.) | Recovery ratio with respect to Hb after 0 days (Feces 1, 62 h at 37° C.) | Hb concentration (Feces 2, 0 h at 37° C.) | Recovery ratio with respect to Hb after 0 days (Feces 2, 0 h at 37° C.) | Hb concentration (Feces 2, 16 h at 37° C.) | Recovery ratio with respect to Hb after 0 days (Feces 2, 16 h at 37° C.) | Hb concentration (Feces 2, 38 h at 37° C.) | Recovery ratio with respect to Hb after 0 days (Feces 2, 38 h at 37° C.) | Hb concentration (Feces 2, 62 h at 37° C.) | Recovery ratio with respect to Hb after 0 days (Feces 2, 62 h at 37° C.) | Hb concentration (No feces, 0 h at 37° C.) | Recovery ratio with respect to Hb after 0 days (No feces, 0 h at 37° C.) | Hb concentration (No feces, 16 h at 37° C.) | Recovery ratio with respect to Hb after 0 days (No feces, 16 h at 37° C.) | SMILES | further results |
| --- | --- | --- | --- | --- | --- | --- | --- | --- | --- | --- | --- | --- | --- | --- | --- | --- | --- | --- | --- | --- | --- |
| 276 µg/L | 100% | 131 µg/L | 48% | 29 µg/L | 10% | 1 µg/L | 0% | 266 µg/L | 100% | 55 µg/L | 21% | 1 µg/L | 0% | 0 µg/L | 0% | 281 µg/L | 100% | 254 µg/L | 91% | OC[C@@H](O)[C@@H](O)[C@H](O)[C@H](O)CO [Mannitol, mannitol] | Hb concentration (No feces, 38 h at 37° C.): 237 µg/L; Recovery ratio with respect to Hb after 0 days (No feces, 38 h at 37° C.): 84%; Hb concentration (No feces, 62 h at 37° C.): 235 µg/L; Recovery ratio with respect to Hb after 0 days (No feces, 62 h at 37° C.): 84%; recovery ratio of hemoglobin in the sample: further improved |
| 290 µg/L | 100% | 146 µg/L | 50% | 39 µg/L | 13% | 1 µg/L | 0% | 275 µg/L | 100% | 61 µg/L | 22% | 0 µg/L | 0% | 0 µg/L | 0% | 300 µg/L | 100% | 263 µg/L | 88% | OC[C@@H](O)[C@@H](O)[C@H](O)[C@@H](O)CO [Sorbitol, sorbitol] | Hb concentration (Feces 3, 0 h at 37° C.): 277 µg/L; Recovery ratio with respect to Hb after 0 days (Feces 3, 0 h at 37° C.): 100%; Hb concentration (Feces 3, 16 h at 37° C.): 49 µg/L; Recovery ratio with respect to Hb after 0 days (Feces 3, 16 h at 37° C.): 18%; Hb concentration (Feces 3, 38 h at 37° C.): 1 µg/L; Recovery ratio with respect to Hb after 0 days (Feces 3, 38 h at 37° C.): 0%; Hb concentration (Feces 3, 62 h at 37° C.): 0 µg/L; Recovery ratio with respect to Hb after 0 days (Feces 3, 62 h at 37° C.): 0%; Hb concentration (No feces, 38 h at 37° C.): 245 µg/L; Recovery ratio with respect to Hb after 0 days (No feces, 38 h at 37° C.): 82%; Hb concentration (No feces, 62 h at 37° C.): 235 µg/L; Recovery ratio with respect to Hb after 0 days (No feces, 62 h at 37° C.): 79%; recovery ratio of hemoglobin in the sample: further improved |
| 268 µg/L | 100% | 133 µg/L | 50% | 41 µg/L | 15% | 8 µg/L | 3% | 254 µg/L | 100% | 54 µg/L | 21% | 1 µg/L | 0% | 0 µg/L | 0% | 280 µg/L | 100% | 241 µg/L | 86% | OC[C@H]1O[C@H](O[C@H]2O[C@H](CO)[C@@H](O)[C@H](O)[C@H]2O)[C@H](O)[C@@H](O)[C@@H]1O [Trehalose, trehalose] | Hb concentration (Feces 3, 0 h at 37° C.): 260 µg/L; Recovery ratio with respect to Hb after 0 days (Feces 3, 0 h at 37° C.): 100%; Hb concentration (Feces 3, 16 h at 37° C.): 48 µg/L; Recovery ratio with respect to Hb after 0 days (Feces 3, 16 h at 37° C.): 19%; Hb concentration (Feces 3, 38 h at 37° C.): 0 µg/L; Recovery ratio with respect to Hb after 0 days (Feces 3, 38 h at 37° C.): 0%; Hb concentration (Feces 3, 62 h at 37° C.): 0 µg/L; Recovery ratio with respect to Hb after 0 days (Feces 3, 62 h at 37° C.): 0%; Hb concentration (No feces, 38 h at 37° C.): 228 µg/L; Recovery ratio with respect to Hb after 0 days (No feces, 38 h at 37° C.): 81%; Hb concentration (No feces, 62 h at 37° C.): 219 µg/L; Recovery ratio with respect to Hb after 0 days (No feces, 62 h at 37° C.): 78%; recovery ratio of hemoglobin in the sample: further improved |

| SMILES | Hb concentration (Feces 1, 0 h at 37° C.) | Recovery ratio with respect to Hb after 0 days (Feces 1, 0 h at 37° C.) | Hb concentration (Feces 1, 16 h at 37° C.) | Recovery ratio with respect to Hb after 0 days (Feces 1, 16 h at 37° C.) | Hb concentration (Feces 1, 38 h at 37° C.) | Recovery ratio with respect to Hb after 0 days (Feces 1, 38 h at 37° C.) | Hb concentration (Feces 1, 62 h at 37° C.) | Recovery ratio with respect to Hb after 0 days (Feces 1, 62 h at 37° C.) | Hb concentration (Feces 2, 0 h at 37° C.) | Recovery ratio with respect to Hb after 0 days (Feces 2, 0 h at 37° C.) | Hb concentration (Feces 2, 16 h at 37° C.) | Recovery ratio with respect to Hb after 0 days (Feces 2, 16 h at 37° C.) | Hb concentration (Feces 2, 38 h at 37° C.) | Recovery ratio with respect to Hb after 0 days (Feces 2, 38 h at 37° C.) | Hb concentration (Feces 2, 62 h at 37° C.) | Recovery ratio with respect to Hb after 0 days (Feces 2, 62 h at 37° C.) | Hb concentration (No feces, 0 h at 37° C.) | Recovery ratio with respect to Hb after 0 days (No feces, 0 h at 37° C.) | Hb concentration (No feces, 16 h at 37° C.) | Recovery ratio with respect to Hb after 0 days (No feces, 16 h at 37° C.) | further results |
| --- | --- | --- | --- | --- | --- | --- | --- | --- | --- | --- | --- | --- | --- | --- | --- | --- | --- | --- | --- | --- | --- |
| O=C(CO)[C@@H](O)[C@H](O)[C@H](O)CO [Fructose, fructose] | 281 µg/L | 100% | 134 µg/L | 48% | 35 µg/L | 12% | 0 µg/L | 0% | 268 µg/L | 100% | 60 µg/L | 22% | 1 µg/L | 0% | 0 µg/L | 0% | 284 µg/L | 100% | 246 µg/L | 86% | Hb concentration (Feces 3, 0 h at 37° C.): 263 µg/L and 269 µg/L; Recovery ratio with respect to Hb after 0 days (Feces 3, 0 h at 37° C.): 100%; Hb concentration (Feces 3, 16 h at 37° C.): 51 µg/L and 57 µg/L; Recovery ratio with respect to Hb after 0 days (Feces 3, 16 h at 37° C.): 19% and 21%; Hb concentration (Feces 3, 38 h at 37° C.): 0 µg/L; Recovery ratio with respect to Hb after 0 days (Feces 3, 38 h at 37° C.): 0%; Hb concentration (Feces 3, 62 h at 37° C.): 0 µg/L; Recovery ratio with respect to Hb after 0 days (Feces 3, 62 h at 37° C.): 0%; Hb concentration (No feces, 38 h at 37° C.): 233 µg/L; Recovery ratio with respect to Hb after 0 days (No feces, 38 h at 37° C.): 82%; Hb concentration (No feces, 62 h at 37° C.): 230 µg/L; Recovery ratio with respect to Hb after 0 days (No feces, 62 h at 37° C.): 81%; recovery ratio of hemoglobin in the sample: further improved |
| OC[C@H]1O[C@@](CO)(O[C@H]2O[C@H](CO)[C@@H](O)[C@H](O)[C@H]2O)[C@@H](O)[C@@H]1O [Sucrose, sucrose] | 271 µg/L | 100% | 137 µg/L | 51% | 45 µg/L | 16% | 10 µg/L | 4% | 255 µg/L | 100% | 57 µg/L | 22% | 3 µg/L | 1% | 0 µg/L | 0% | 278 µg/L | 100% | 245 µg/L | 88% | Hb concentration (Feces 3, 0 h at 37° C.): 257 µg/L; Recovery ratio with respect to Hb after 0 days (Feces 3, 0 h at 37° C.): 100%; Hb concentration (Feces 3, 16 h at 37° C.): 67 µg/L; Recovery ratio with respect to Hb after 0 days (Feces 3, 16 h at 37° C.): 26%; Hb concentration (Feces 3, 38 h at 37° C.): 0 µg/L; Recovery ratio with respect to Hb after 0 days (Feces 3, 38 h at 37° C.): 0%; Hb concentration (Feces 3, 62 h at 37° C.): 0 µg/L; Recovery ratio with respect to Hb after 0 days (Feces 3, 62 h at 37° C.): 0%; Hb concentration (No feces, 38 h at 37° C.): 229 µg/L; Recovery ratio with respect to Hb after 0 days (No feces, 38 h at 37° C.): 83%; Hb concentration (No feces, 62 h at 37° C.): 224 µg/L; Recovery ratio with respect to Hb after 0 days (No feces, 62 h at 37° C.): 81%; recovery ratio of hemoglobin in the sample: further improved |
